Data from ChEMBL document CHEMBL1144449, “Design, synthesis, and evaluation of orally active 4-(2,4-difluoro-5-(methoxycarbamoyl)phenylamino)pyrrolo[2,1-f][1,2,4]triazines as dual vascular endothelial growth factor receptor-2 and fibroblast growth factor receptor-1 inhibitors” (J Med Chem, 2005).

Assays:
[1] = target: Fibroblast growth factor receptor 1 (Homo sapiens, UniProt P11362); assay: Inhibition of human fibroblast growth factor receptor 1
[2] = target: Fibroblast growth factor receptor (Homo sapiens, UniProt P22607+P11362+P22455+P21802); assay: Inhibition of FGF-stimulated human umbilical vein endothelial cell proliferation; assay type: functional, cell-based
[3] = target: Vascular endothelial growth factor receptor 2 (Homo sapiens, UniProt P35968); assay: Inhibition of human vascular endothelial growth factor receptor 2 kinase activity
[4] = target: Vascular endothelial growth factor receptor (Homo sapiens, UniProt P17948+P35916+P35968); assay: Inhibition of VEGF-stimulated human umbilical vein endothelial cell proliferation; assay type: functional, cell-based
[5] = Plasma level after 1 hour of oral administration of 50 mg/kg compound in mouse; assay type: ADME, organism-based; set-up: dose 50 mg/kg, route oral; conditions: read-out: Plasma level
[6] = Plasma level after 4 hours of oral administration of 50 mg/kg compound in mouse; assay type: ADME, organism-based; set-up: dose 50 mg/kg, route oral; conditions: read-out: Plasma level
Cytochrome P450 1A2 = target: T1, Cytochrome P450 1A2 (Homo sapiens, UniProt P05177); assay: Inhibitory concentration against human cytochrome P450 1A2; assay type: ADME
T1 sequence (P05177 whole entry): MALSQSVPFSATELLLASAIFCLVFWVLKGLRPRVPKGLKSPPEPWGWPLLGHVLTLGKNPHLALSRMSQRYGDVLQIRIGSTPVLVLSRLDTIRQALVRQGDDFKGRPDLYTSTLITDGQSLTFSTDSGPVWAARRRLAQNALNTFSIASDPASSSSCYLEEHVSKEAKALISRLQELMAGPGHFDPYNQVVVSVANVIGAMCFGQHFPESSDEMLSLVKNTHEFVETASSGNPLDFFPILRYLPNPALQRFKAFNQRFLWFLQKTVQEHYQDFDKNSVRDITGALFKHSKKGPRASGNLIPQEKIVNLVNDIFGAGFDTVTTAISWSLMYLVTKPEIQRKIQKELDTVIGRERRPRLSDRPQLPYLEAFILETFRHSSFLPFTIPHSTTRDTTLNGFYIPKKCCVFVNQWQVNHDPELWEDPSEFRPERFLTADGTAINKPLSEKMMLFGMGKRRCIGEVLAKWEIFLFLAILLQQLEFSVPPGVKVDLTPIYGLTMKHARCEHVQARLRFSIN

Cytochrome P450 2C9 = Cytochrome P450 2C9 (Homo sapiens, UniProt P11712); assay: Inhibitory concentration against human cytochrome P450 2C9; assay type: ADME
Cytochrome P450 3A4 = Cytochrome P450 3A4 (Homo sapiens, UniProt P08684); assay: Inhibitory concentration against human cytochrome P450 3A4; assay type: ADME
Mus musculus [7] = assay: Tumor growth inhibition determined after oral administration of […] mg/kg/day compound against established L2987 human lung carcinoma xenografts implanted subcutaneously in athymic mouse; assay type: functional; conditions: read-out: TGI
Mus musculus [8] = assay: Tumor growth inhibition determined after oral administration of 100 mg/kg/day compound against established L2987 human lung carcinoma xenografts implanted subcutaneously in athymic mouse; assay type: functional; conditions: read-out: TGI
[9] = target: Platelet-derived growth factor receptor beta (Homo sapiens, UniProt P09619); assay: Inhibition of human platelet-derived growth factor receptor beta
Mus musculus [10] = assay: Tumor growth inhibition determined after oral administration of 50 mg/kg/day compound against established L2987 human lung carcinoma xenografts implanted subcutaneously in athymic mouse; assay type: functional; conditions: read-out: TGI
[11] = target: Protein kinase C alpha type (Homo sapiens, UniProt P17252); assay: Inhibition of human protein kinase C alpha
[12] = target: Insulin-like growth factor 1 receptor (Homo sapiens, UniProt P08069); assay: Inhibition of human insulin-like growth factor I receptor
[13] = target: Receptor tyrosine-protein kinase erbB-2 (Homo sapiens, UniProt P04626); assay: Inhibition against human HER2 kinase
[14] = target: Cyclin-dependent kinase 2 (Homo sapiens, UniProt P24941); assay: Inhibition of human cyclin-dependent kinase 2
[15] = target: Tyrosine-protein kinase Lck (Homo sapiens, UniProt P06239); assay: Inhibition of human p56 lck tyrosine kinase
Mus musculus [16] = assay: Tumor growth inhibition determined after oral administration of 60 mg/kg/day compound against established L2987 human lung carcinoma xenografts implanted subcutaneously in athymic mouse; assay type: functional; conditions: read-out: TGI

Chain of Vascular endothelial growth factor receptor 2 (P35968 whole entry): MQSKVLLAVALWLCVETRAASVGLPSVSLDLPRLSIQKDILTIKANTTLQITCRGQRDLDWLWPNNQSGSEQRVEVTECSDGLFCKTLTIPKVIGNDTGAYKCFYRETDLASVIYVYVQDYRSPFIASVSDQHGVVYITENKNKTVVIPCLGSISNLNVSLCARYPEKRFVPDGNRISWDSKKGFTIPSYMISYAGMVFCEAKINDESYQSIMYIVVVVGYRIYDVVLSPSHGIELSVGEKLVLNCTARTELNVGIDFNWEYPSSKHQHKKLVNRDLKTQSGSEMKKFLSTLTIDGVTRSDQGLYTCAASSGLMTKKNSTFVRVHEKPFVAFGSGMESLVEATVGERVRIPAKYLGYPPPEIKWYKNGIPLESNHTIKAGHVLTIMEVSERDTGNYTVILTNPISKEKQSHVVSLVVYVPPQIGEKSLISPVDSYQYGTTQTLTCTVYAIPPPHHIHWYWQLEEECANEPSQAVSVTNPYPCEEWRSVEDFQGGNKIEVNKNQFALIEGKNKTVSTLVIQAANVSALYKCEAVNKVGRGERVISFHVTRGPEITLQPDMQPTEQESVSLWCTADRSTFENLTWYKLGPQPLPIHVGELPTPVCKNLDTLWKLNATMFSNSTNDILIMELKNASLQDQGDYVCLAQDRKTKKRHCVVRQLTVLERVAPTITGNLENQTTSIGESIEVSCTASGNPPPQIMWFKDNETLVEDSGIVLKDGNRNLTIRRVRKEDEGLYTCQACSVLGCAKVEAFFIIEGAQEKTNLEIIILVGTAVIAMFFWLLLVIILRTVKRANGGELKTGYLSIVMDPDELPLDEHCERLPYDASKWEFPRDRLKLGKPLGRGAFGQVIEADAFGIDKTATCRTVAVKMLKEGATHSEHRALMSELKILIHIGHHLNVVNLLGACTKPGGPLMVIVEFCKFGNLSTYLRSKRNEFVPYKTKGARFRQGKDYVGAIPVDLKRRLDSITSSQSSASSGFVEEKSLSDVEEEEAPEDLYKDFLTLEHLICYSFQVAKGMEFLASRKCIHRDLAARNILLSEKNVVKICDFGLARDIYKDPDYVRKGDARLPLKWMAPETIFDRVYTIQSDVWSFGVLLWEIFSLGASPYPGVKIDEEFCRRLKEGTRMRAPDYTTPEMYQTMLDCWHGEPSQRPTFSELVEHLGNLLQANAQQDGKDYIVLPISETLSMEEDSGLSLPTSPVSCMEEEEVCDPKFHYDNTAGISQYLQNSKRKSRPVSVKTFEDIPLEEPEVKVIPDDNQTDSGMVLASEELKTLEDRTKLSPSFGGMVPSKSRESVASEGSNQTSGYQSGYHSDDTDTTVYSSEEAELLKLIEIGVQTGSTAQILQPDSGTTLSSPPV
Chain of Insulin-like growth factor 1 receptor (P08069 31-736 limits assumed): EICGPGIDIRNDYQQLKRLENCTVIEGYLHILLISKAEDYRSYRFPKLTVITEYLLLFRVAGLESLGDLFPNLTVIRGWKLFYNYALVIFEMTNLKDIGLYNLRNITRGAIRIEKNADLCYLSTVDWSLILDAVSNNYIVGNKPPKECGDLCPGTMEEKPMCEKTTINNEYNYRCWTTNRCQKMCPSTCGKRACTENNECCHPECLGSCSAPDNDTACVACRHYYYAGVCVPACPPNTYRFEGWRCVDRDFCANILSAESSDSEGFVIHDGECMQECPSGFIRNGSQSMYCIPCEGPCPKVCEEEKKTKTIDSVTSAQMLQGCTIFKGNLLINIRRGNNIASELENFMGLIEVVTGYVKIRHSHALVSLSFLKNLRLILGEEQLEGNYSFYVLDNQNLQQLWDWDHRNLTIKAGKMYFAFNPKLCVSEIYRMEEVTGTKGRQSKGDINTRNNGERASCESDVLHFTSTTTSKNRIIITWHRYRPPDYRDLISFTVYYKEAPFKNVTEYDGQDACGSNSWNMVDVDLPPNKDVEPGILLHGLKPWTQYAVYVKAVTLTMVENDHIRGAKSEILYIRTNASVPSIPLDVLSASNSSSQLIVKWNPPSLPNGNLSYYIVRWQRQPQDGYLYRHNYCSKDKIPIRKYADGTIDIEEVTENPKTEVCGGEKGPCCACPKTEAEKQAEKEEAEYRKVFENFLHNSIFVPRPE
Chain of Insulin-like growth factor 1 receptor (P08069 741-1367 limits assumed): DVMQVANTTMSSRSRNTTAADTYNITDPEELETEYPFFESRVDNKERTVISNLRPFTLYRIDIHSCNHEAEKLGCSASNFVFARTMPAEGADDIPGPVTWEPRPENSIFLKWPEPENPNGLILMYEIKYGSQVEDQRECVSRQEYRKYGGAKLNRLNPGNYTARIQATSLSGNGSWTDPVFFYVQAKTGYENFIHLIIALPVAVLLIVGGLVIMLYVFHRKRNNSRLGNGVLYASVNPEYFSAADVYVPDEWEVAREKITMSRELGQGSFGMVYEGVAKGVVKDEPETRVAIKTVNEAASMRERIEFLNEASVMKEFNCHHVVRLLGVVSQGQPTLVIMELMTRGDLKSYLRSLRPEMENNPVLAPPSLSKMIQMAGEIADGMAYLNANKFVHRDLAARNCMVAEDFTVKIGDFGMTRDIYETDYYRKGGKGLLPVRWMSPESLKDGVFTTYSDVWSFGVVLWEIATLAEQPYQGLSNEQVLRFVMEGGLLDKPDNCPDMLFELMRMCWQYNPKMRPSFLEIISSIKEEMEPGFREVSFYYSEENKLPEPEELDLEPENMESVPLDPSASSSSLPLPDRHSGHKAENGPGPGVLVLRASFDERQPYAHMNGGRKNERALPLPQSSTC
Chain of Receptor tyrosine-protein kinase erbB-2 (P04626 whole entry): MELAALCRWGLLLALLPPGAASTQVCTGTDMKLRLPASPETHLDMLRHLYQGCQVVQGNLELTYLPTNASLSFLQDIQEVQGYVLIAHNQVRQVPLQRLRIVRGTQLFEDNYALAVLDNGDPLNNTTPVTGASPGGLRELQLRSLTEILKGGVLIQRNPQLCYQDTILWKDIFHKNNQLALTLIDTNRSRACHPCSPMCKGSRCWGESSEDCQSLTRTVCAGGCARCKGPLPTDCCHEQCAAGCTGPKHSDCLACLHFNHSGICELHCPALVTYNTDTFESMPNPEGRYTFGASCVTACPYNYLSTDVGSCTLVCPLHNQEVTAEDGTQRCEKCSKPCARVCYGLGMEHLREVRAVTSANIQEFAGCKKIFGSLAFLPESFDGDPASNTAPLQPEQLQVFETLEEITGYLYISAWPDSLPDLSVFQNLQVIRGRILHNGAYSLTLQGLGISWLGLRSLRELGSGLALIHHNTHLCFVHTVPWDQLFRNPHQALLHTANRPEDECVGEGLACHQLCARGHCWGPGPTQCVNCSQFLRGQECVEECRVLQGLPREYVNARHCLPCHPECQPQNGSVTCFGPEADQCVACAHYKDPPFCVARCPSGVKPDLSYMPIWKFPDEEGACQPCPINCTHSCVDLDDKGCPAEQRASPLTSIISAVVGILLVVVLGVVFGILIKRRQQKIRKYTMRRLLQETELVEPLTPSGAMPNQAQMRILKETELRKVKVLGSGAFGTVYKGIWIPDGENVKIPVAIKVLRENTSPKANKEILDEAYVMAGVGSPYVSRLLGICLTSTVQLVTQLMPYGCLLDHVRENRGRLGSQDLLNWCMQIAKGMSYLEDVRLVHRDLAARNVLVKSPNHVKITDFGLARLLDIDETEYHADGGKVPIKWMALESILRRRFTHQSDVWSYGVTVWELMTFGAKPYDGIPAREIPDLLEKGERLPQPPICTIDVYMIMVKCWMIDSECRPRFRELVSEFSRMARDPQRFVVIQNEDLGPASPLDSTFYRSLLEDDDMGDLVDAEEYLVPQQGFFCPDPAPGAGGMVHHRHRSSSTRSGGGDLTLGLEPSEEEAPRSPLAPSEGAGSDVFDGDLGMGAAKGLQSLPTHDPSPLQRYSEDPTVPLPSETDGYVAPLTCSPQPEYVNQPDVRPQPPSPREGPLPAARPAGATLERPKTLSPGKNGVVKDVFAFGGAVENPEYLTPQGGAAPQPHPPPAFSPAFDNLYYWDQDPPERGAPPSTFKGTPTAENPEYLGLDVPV

Row | SMILES | IC50 [1] [nM] | IC50 [2] [nM] | IC50 [3] [nM] | IC50 [4] [nM] | further results
1 | CONC(=O)c1cc(Nc2ncnn3cc(-c4nnc(C5CC5)o4)c(C(C)C)c23)c(F)cc1F | 14 | 5.3 | 11 | 3.6 | –
2 | CONC(=O)c1cc(Nc2ncnn3cc(NC(=O)OC4CCN(C)CC4)c(C(C)C)c23)c(F)cc1F | – | – | 36 | 19 | concentration at 1 h [5]: 5.1 µM; concentration at 4 h [6]: 3 µM
3 | CONC(=O)c1cc(Nc2ncnn3cc(-c4nnc(CC5CC5)o4)c(C(C)C)c23)c(F)cc1F | 27 | 9.2 | 17 | 4 | –
4 | CCOC(=O)c1cn2ncnc(Nc3cc(C(=O)NOCC(C)C)c(F)cc3F)c2c1C(C)C | – | – | 1200 | – | –
5 | CONC(=O)c1cc(Nc2ncnn3cc(-c4nnc(CC(C)C)o4)c(C(C)C)c23)c(F)cc1F | 33 | 6.6 | 23 | 2.1 | –
6 | CONC(=O)c1cc(Nc2ncnn3cc(NC(=O)OCCCN4CCCCC4)c(C(C)C)c23)c(F)cc1F | – | – | 79 | 62 | –
7 | CONC(=O)c1cc(Nc2ncnn3cc(-c4n[nH]c(C)n4)c(C(C)C)c23)c(F)cc1F | 50 | 46 | 71 | 50 | –
8 | CCOC(=O)c1cn2ncnc(Nc3ccc(Br)c(C(=O)NOC)c3)c2c1C(C)C | – | – | 270 | – | –
9 | CONC(=O)c1cc(Nc2ncnn3cc(-c4ncc(C)o4)c(C(C)C)c23)c(F)cc1F | 20 | 4 | 8 | 1.1 | IC50 (Cytochrome P450 1A2): 64 nM; IC50 (Cytochrome P450 2C9): 3.6 µM; IC50 (Cytochrome P450 3A4): 5.1 µM
10 | CONC(=O)c1cc(Nc2ncnn3cc(-c4nnc(C(F)F)o4)c(C(C)C)c23)c(F)cc1F | 100 | 21 | – | – | concentration at 1 h [5]: 187 µM; inhibition in vivo at 150 mg/kg/day (Mus musculus [7]): 88.4%; inhibition in vivo at 100 mg/kg/day (Mus musculus [8]): 46.5%; IC50 [9]: > 2000 nM; inhibition in vivo at 50 mg/kg/day (Mus musculus [10]): 30%; IC50 [11]: > 50 µM; IC50 [12]: > 25 µM; IC50 [13]: > 10 µM; concentration at 4 h [6]: 155 µM; IC50 [14]: > 50 µM
11 | CONC(=O)c1cc(Nc2ncnn3cc(-c4nnc(CC(F)(F)F)o4)c(C(C)C)c23)c(F)cc1F | 68 | 44 | 29 | 25 | –
12 | CONC(=O)c1cc(Nc2ncnn3cc(-c4noc(C)n4)c(C(C)C)c23)c(F)cc1F | 140 | – | 110 | – | –
13 | CONC(=O)c1cc(Nc2ncnn3cc(NC(=O)OCCCS(C)(=O)=O)c(C(C)C)c23)c(F)cc1F | 58 | – | – | – | concentration at 1 h [5]: 7.9 µM; IC50 [9]: > 2000 nM; IC50 [11]: > 50 µM; IC50 [12]: > 25 µM; IC50 [13]: 5.3 µM; concentration at 4 h [6]: 13.8 µM; IC50 [15]: 5.1 µM; IC50 [14]: > 50 µM
14 | CCOC(=O)c1cn2ncnc(Nc3cc(C(=O)NOCC4CC4)c(F)cc3F)c2c1C(C)C | – | – | 190 | – | –
15 | CONC(=O)c1cc(Nc2ncnn3cc(-c4nnc(CS(C)(=O)=O)o4)c(C(C)C)c23)c(F)cc1F | 16 | 4.6 | 16 | 2.1 | concentration at 1 h [5]: 288 µM; inhibition in vivo at 100 mg/kg/day (Mus musculus [8]): 74.9%; inhibition in vivo at 60 mg/kg/day (Mus musculus [16]): 42.6%; concentration at 4 h [6]: 232 µM
16 | CCOC(=O)c1cn2ncnc(Nc3cc(C(=O)NOC)c(F)cc3F)c2c1C(C)C | – | – | 13 | – | –
17 | CONC(=O)c1cc(Nc2ncnn3cc(-c4nnco4)c(C(C)C)c23)c(F)cc1F | 160 | 54 | 77 | 91 | –

Row | SMILES | IC50 [1] [nM] | IC50 [2] [nM] | IC50 [3] [nM] | IC50 [4] [nM] | further results
18 | CCOC(=O)c1cn2ncnc(Nc3cc(C(=O)NOC(C)C)c(F)cc3F)c2c1C(C)C | – | – | 350 | – | –
19 | CONC(=O)c1cc(Nc2ncnn3cc(-c4nnc(N(C)C)o4)c(C(C)C)c23)c(F)cc1F | 18 | 7.3 | 11 | 6.7 | –
20 | CCONC(=O)c1cc(Nc2ncnn3cc(C(=O)OCC)c(C(C)C)c23)c(F)cc1F | – | – | 40 | – | –
21 | CCOC(=O)c1cn2ncnc(Nc3cc(C(=O)NOC)ccc3F)c2c1C(C)C | – | – | 34 | – | –
22 | CCOC(=O)c1cn2ncnc(Oc3cccc(C(=O)NOC)c3)c2c1C(C)C | – | – | 270 | – | –
23 | CCOC(=O)c1cn2ncnc(Nc3ccc(F)c(C(=O)NOC)c3)c2c1C(C)C | – | – | 79 | – | –
24 | CCOC(=O)c1cn2ncnc(Nc3cccc(C(=O)NOC)c3)c2c1C(C)C | – | – | 130 | – | –
25 | CONC(=O)c1cc(Nc2ncnn3cc(-c4nnc(C)o4)c(C(C)C)c23)c(F)cc1F | 19 | 6.5 | – | – | concentration at 1 h [5]: 132 µM; IC50 [9]: > 2000 nM; IC50 [11]: > 50 µM; IC50 [12]: > 25 µM; IC50 [13]: 8 µM; concentration at 4 h [6]: 37.7 µM; IC50 [14]: > 50 µM
26 | CCOC(=O)c1cn2ncnc(Nc3ccc(C)c(C(=O)NOC)c3)c2c1C(C)C | – | – | 120 | – | –
27 | CCOC(=O)Nc1cn2ncnc(Nc3cc(C(=O)NOC)c(F)cc3F)c2c1C(C)C | – | – | 66 | 31 | –
28 | CONC(=O)c1cc(Nc2ncnn3cc(-c4nnc(C(F)(F)F)o4)c(C(C)C)c23)c(F)cc1F | 84 | 33 | 76 | 35 | –
29 | CONC(=O)c1cc(Nc2ncnn3cc(NC(=O)OCC4CCCO4)c(C(C)C)c23)c(F)cc1F (centres undefined) | – | – | – | – | concentration at 1 h [5]: 29.5 µM; IC50 [11]: > 50 µM; IC50 [12]: > 25 µM; IC50 [13]: > 10 µM; concentration at 4 h [6]: 2.9 µM; IC50 [14]: > 50 µM
30 | CONC(=O)c1cc(Nc2ncnn3cc(-c4nc(C)no4)c(C(C)C)c23)c(F)cc1F | 110 | 7.6 | 49 | 6.8 | –
31 | CCc1nnc(-c2cn3ncnc(Nc4cc(C(=O)NOC)c(F)cc4F)c3c2C(C)C)o1 | 28 | 4.7 | 17 | 1.8 | –
32 | CONC(=O)c1cc(Nc2ncnn3cc(-c4nnc(CN(C)C)o4)c(C(C)C)c23)c(F)cc1F | 149 | – | 66 | – | –
33 | CONC(=O)c1cc(Nc2ncnn3cc(-c4nnc(C(C)C)o4)c(C(C)C)c23)c(F)cc1F | 39 | 1 | 22 | 18 | –
34 | CONC(=O)c1cc(Nc2ncnn3cc(NC(=O)OCc4ccccc4)c(C(C)C)c23)c(F)cc1F | – | – | 180 | – | –
